Where two headings read alike, the source gives them in different places.
Columns and labels:
Test in all cases: biochemical
Design in all cases: DiscoveRx KINOMEscan active site-directed competition binding; percent of control kinase bound to immobilised ligand
DMPK2 = target: T1, DMPK2 (Homo sapiens, UniProt Q6DT37)
T1 construct: gene CDC42BPG

PRKD2 = target: T2, PRKD2 (Homo sapiens, UniProt Q9BZL6)
T2 sequence (Q9BZL6 1-878): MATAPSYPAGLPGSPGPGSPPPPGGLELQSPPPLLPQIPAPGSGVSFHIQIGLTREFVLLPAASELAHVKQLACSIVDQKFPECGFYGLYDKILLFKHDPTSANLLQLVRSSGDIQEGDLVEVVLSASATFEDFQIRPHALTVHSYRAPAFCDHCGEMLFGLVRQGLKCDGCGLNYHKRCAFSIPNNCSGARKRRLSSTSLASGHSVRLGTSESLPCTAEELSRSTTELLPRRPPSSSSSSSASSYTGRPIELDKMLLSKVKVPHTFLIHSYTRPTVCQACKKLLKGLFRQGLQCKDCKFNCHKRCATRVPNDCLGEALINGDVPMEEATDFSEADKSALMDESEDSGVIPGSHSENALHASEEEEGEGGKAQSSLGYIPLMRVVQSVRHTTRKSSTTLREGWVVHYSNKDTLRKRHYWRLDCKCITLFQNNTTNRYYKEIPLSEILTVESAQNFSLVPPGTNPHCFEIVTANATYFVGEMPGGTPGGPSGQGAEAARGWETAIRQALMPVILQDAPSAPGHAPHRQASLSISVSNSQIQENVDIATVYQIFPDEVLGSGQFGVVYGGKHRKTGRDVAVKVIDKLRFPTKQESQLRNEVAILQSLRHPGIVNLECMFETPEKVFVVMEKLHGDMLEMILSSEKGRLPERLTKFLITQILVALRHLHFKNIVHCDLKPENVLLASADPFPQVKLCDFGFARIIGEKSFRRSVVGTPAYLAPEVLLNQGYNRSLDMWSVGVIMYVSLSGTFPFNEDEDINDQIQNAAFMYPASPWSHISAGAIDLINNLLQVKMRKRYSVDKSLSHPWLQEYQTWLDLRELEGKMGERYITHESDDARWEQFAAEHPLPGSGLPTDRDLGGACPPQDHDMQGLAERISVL

CDKL2 = target: T3, CDKL2 (Homo sapiens, UniProt Q92772)
T3 sequence (Q92772 1-493): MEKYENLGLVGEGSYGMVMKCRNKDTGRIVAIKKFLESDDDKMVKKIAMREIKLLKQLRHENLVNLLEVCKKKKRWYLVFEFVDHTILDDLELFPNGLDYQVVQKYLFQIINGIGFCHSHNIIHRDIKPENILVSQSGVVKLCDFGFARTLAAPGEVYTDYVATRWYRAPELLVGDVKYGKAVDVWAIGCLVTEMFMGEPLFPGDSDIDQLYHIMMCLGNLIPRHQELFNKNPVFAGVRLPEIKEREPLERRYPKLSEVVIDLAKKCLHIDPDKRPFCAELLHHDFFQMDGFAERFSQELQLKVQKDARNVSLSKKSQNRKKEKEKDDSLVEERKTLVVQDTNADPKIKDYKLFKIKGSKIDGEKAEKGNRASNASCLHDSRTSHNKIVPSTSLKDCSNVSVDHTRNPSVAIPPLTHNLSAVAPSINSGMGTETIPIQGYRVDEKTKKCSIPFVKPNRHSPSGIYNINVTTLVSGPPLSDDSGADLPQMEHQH

EPHB2 = target: T4, EPHB2 (Homo sapiens, UniProt P29323)
T4 sequence (P29323 1-1055): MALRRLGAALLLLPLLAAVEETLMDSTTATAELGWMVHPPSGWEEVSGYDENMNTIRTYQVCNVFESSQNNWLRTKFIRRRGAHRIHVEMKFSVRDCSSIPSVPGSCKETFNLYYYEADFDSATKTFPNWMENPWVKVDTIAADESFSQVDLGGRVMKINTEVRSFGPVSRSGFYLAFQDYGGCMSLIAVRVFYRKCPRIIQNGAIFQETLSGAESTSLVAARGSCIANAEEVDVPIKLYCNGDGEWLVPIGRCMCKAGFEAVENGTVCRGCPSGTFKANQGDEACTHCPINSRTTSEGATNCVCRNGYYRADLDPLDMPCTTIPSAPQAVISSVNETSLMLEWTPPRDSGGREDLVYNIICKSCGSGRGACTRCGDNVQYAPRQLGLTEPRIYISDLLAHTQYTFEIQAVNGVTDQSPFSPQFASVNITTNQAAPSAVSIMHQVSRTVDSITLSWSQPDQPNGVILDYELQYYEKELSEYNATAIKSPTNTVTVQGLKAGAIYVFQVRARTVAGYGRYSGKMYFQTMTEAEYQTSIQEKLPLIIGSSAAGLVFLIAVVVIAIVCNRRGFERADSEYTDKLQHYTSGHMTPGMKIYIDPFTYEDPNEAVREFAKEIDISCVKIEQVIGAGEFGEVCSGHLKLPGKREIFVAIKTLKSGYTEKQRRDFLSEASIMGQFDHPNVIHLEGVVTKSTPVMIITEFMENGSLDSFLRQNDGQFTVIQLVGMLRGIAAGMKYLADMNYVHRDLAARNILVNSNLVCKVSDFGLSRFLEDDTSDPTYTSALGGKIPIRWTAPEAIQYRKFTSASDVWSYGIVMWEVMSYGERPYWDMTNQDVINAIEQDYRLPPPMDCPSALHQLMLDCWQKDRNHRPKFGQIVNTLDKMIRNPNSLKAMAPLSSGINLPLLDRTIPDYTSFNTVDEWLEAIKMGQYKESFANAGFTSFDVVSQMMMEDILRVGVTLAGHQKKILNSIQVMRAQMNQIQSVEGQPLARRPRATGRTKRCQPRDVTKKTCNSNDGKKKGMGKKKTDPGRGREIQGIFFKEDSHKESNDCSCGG

ERBB3 = ERBB3 (Homo sapiens, UniProt P21860)
CLK3 = CLK3 (Homo sapiens, UniProt P49761)
[1] = read-out: Talazoparib (BMN 673) / %Ctrl @ 10000nM
[2] = read-out: Olaparib / %Ctrl @ 10000nM
[3] = read-out: Niraparib (MK-4827) / %Ctrl @ 10000nM
[4] = read-out: Rucaparib / %Ctrl @ 10000nM, binding competition, % of control

Sequence of ERBB3 (P21860 whole entry): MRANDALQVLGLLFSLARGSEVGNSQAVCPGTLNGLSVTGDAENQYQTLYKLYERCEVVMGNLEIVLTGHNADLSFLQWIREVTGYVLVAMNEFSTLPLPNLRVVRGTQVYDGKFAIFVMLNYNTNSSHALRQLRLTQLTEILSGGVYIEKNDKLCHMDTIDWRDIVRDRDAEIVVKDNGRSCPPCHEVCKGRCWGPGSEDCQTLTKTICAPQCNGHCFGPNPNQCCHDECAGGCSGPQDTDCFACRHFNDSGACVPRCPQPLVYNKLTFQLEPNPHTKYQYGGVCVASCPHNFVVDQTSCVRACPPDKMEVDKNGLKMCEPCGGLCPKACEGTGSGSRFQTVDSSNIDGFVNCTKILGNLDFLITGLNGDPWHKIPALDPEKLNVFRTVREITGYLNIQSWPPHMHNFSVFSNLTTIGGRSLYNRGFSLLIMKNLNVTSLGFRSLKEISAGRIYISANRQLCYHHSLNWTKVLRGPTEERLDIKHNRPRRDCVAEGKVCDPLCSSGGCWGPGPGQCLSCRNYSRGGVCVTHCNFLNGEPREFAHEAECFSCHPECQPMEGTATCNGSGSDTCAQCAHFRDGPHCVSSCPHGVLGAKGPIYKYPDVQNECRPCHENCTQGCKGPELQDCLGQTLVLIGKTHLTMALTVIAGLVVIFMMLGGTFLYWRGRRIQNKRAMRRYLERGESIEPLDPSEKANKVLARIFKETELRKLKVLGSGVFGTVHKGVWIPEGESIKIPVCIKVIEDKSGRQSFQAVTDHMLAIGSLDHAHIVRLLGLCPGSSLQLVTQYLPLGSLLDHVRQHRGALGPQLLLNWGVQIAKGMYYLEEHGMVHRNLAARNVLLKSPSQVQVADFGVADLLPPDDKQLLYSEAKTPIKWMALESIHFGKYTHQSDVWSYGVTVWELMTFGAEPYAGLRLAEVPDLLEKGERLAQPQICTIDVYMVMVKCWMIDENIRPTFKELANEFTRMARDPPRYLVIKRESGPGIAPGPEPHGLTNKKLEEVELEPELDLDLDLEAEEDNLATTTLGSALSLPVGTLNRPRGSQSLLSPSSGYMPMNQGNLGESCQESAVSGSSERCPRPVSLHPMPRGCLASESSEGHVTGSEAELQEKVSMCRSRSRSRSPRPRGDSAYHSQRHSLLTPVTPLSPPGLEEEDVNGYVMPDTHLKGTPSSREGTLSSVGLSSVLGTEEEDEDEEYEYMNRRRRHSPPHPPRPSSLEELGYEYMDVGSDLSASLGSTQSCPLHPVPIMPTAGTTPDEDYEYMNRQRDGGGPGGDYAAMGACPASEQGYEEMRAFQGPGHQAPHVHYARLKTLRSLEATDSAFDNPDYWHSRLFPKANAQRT
T1 sequence (Q6DT37 whole entry): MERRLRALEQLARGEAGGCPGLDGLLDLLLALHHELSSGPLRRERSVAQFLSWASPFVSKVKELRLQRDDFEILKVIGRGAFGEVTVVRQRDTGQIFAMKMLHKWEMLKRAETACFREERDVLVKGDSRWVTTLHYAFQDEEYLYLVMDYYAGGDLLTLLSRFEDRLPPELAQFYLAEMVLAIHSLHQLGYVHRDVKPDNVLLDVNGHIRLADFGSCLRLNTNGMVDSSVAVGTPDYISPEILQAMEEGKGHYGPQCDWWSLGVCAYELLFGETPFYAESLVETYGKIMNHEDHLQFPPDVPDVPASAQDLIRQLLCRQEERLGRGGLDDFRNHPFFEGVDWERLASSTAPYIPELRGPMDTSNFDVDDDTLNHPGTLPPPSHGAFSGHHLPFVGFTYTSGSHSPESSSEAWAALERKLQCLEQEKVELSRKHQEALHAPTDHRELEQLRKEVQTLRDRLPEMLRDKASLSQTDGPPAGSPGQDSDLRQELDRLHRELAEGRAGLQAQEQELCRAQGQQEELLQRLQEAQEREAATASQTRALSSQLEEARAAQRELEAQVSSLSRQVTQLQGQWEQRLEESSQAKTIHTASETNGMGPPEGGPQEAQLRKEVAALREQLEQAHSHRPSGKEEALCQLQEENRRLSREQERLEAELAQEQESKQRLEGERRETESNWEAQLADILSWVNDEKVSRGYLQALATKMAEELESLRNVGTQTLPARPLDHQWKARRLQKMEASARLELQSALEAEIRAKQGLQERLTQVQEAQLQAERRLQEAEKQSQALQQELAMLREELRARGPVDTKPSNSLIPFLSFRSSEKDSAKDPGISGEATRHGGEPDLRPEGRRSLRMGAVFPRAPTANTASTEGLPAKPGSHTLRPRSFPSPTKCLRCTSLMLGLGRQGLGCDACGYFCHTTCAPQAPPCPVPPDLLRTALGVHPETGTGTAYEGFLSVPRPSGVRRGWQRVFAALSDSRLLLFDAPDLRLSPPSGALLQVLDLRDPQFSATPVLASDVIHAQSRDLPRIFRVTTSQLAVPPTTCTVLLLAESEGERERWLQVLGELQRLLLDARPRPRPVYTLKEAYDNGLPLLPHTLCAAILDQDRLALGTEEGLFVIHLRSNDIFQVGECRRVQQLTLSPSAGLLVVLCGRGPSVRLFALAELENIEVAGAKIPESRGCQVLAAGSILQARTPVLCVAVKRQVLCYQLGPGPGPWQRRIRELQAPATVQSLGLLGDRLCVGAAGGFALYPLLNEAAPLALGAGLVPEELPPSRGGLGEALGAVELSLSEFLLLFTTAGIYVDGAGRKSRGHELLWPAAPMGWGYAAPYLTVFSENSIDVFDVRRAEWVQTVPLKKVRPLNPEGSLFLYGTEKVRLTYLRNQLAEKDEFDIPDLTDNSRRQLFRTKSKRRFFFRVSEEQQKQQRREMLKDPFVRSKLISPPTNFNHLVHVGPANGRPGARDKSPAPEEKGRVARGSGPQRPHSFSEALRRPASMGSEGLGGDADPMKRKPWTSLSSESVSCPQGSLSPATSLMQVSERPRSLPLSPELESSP
Sequence of CLK3 (P49761 whole entry): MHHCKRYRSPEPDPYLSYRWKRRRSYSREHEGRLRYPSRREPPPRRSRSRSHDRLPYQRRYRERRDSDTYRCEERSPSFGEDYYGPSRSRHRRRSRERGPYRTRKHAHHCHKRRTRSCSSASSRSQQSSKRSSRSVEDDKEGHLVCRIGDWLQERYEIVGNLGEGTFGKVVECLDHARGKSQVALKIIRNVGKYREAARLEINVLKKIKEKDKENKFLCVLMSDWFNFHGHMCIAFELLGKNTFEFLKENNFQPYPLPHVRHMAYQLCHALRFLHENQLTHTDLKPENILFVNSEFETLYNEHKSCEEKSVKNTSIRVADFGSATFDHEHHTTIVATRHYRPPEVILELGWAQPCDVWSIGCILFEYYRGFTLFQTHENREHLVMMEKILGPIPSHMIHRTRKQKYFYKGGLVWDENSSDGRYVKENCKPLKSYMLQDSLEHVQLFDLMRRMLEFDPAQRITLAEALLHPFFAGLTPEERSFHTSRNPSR

`Cn1ncnc1[C@H]1c2n[nH]c(=O)c3cc(F)cc(c23)N[C@@H]1c1ccc(F)cc1` [Talazoparib] gave a percent of control binding at 10 µM (DMPK2; [1]) of 100%, a percent of control binding at 10 µM (PRKD2; [1]) of 100% and a percent of control binding at 10 µM (CDKL2; [1]) of 100%. It also gave a percent of control binding at 10 µM (EPHB2; [1]) of 89%, a percent of control binding at 10 µM (ERBB3; [1]) of 100% and a percent of control binding at 10 µM (CLK3; [1]) of 17%.
In the case of `O=C(c1cc(Cc2n[nH]c(=O)c3ccccc23)ccc1F)N1CCN(C(=O)C2CC2)CC1` [Olaparib], the percent of control binding at 10 µM (DMPK2; [2]) is reported as 100%, the percent of control binding at 10 µM (PRKD2; [2]) is reported as 95% and the percent of control binding at 10 µM (CDKL2; [2]) is reported as 99%. It also gave a percent of control binding at 10 µM (EPHB2; [2]) of 95%, a percent of control binding at 10 µM (ERBB3; [2]) of 83% and a percent of control binding at 10 µM (CLK3; [2]) of 89%.
`NC(=O)c1cccc2cn(-c3ccc([C@@H]4CCCNC4)cc3)nc12` [Niraparib] gave a percent of control binding at 10 µM (DMPK2; [3]) of 93%, a percent of control binding at 10 µM (PRKD2; [3]) of 87% and a percent of control binding at 10 µM (CDKL2; [3]) of 23%. For the same compound, the percent of control binding at 10 µM (EPHB2; [3]) was 75%, the percent of control binding at 10 µM (ERBB3; [3]) was 100% and the percent of control binding at 10 µM (CLK3; [3]) was 100%.
`CNCc1ccc(-c2[nH]c3cc(F)cc4c3c2CCNC4=O)cc1` [Rucaparib] showed a percent of control binding at 10 µM (DMPK2; [4]) of 99%, a percent of control binding at 10 µM (PRKD2; [4]) of 77% and a percent of control binding at 10 µM (CDKL2; [4]) of 59%. It also gave a percent of control binding at 10 µM (EPHB2; [4]) of 91%, a percent of control binding at 10 µM (ERBB3; [4]) of 74% and a percent of control binding at 10 µM (CLK3; [4]) of 75%.
